Laboratory results: patent US5861396A, “Purin-6-one derivatives” (Bayer Aktiengesellschaft, priority 1995, dated 1999)

Experiments:
[1] = system: PDE V (c-GMP-specific); assay: Inhibition of the phosphodiesterases in vitro: PDE V; format: biochemical; conditions: nucleotide 10^-6 mol/l, pH 7.5, 30 min; or [^3H] cGMP SPA assay
Protocol: (§1) The c-GMP-stimulable PDE II, the c-GMP-inhibitable PDE III and the cAMP-specific PDE IV were isolated either from porcine or bovine myocardium. The Ca^2+ calmodulin-stimulable PDE I was isolated from porcine aorta, porcine brain or preferably from bovine aorta The c-GMP-specific PDE V was obtained from porcine small intestine, porcine aorta, human blood platelets and preferably from bovine aorta. Purification was carried out by anion exchange chromatography on Mono® Pharmacia essentially according to the method of M. Hoey and Miles D. Houslay, Biochemical Pharmacology, Vol. 40, 193-202 (1990) and C. Lugman et al., Biochemical Pharmacology Vol. 35, 1743-1751 (1986).
(§2) The enzyme activity was determined in a test mixture of 100 μl in 20 mM tris/HCl buffer ph 7.5 which contains 5 MM MgCl2, 0.1 mg/ml of bovine serum albumin and either 800 Bq of ^3 HcAMP or ^3 HcGMP. The final concentration of the corresponding nucleotides is 10^-6 mol/l. The reaction is started by addition of the enzyme; the amount of enzyme is proportioned such that during the incubation time of 30 min about 50% of the substrate is reacted. In order to test the cGMP-stimulable PDE II, ^3 HcAMP is used as a substrate and 10^-6 mol/l of unlabelled cGMP is added to the mixture. In order to test the Ca calmodulin-dependent PDE I, additionally CaCl2, 1 μM and calmodulin, 0.1 μM are added to the reaction mixture. The reaction is stopped by addition of 100 μl of acetonitrile which contains 1 mM cAMP and 1 mM AMP. 100 μl of the reaction mixture are separated on an HPLC and the cleavage products are quantitatively determined "on-line" using a flow scintillation counter. The substance concentration is measured at which the reaction rate is decreased by 50%. Additionally, the "phosphodiesterase [3H] cAMP-SPA enzyme assay" and the "phosphodiesterase [^3 H] cGMP-SPA enzyme assay" from Amersham Life Science were used for testing. The test was carried out according to the experimental protocol indicated by the manufacturer. For activity determination of the PDE2, the [^3 H] cAMP SPA assay was used, 10^-6 M cGMP being added to the reaction mixture to activate the enzyme. For the measurement of PDE1, calmodulin, 10^-7 M and CaCl2, 1 μM were added to the reaction mixture. The PDE5 was measured using the [^3 H] cGMP SPA assay.

[2] = system: PDE II (c-GMP-stimulable); assay: Inhibition of the phosphodiesterases in vitro: PDE II; format: biochemical, porcine or bovine (myocardium); conditions: ^3H cAMP substrate, 10^-6 mol/l unlabelled cGMP added; pH 7.5; 30 min
Protocol: as §1, §2

[3] = system: PDE I (Ca^2+ calmodulin-stimulable); assay: Inhibition of the phosphodiesterases in vitro: PDE I; format: biochemical, porcine aorta, porcine brain or preferably bovine aorta; conditions: CaCl2 1 μM and calmodulin 0.1 μM added; nucleotide 10^-6 mol/l; pH 7.5; 30 min
Protocol: as §1, §2

SMILES	IC50 [1]	IC50 [2]	IC50 [3]
CC(O)C(CCCc1ccccc1)n1cnc2c(=O)[nH]c(Cc3ccccc3)nc21 (stereo not drawn) [Example 33]	800 nM	100 nM	3000 nM
CC(O)C(CCCc1ccccc1)n1cnc2c(=O)[nH]c(Cc3ccc(Cl)c(Cl)c3)nc21 (stereo not drawn) [Example 34]	500 nM	20 nM	~500 nM
CC(O)C(CCCc1ccccc1)n1cnc2c(=O)[nH]c(Cc3ccc(F)cc3)nc21 (stereo not drawn) [Example 69]	500 nM	60 nM	3000 nM
CC(CCCc1ccccc1)n1cnc2c(=O)[nH]c(Cc3ccccc3)nc21 (stereo not drawn) [Example 1]	300 nM	200 nM	500 nM
CC(CCCc1ccccc1)n1cnc2c(=O)[nH]c(Cc3ccc(-c4ccc(F)cc4)cc3)nc21 (stereo not drawn) [Example 80]	1000 nM	80 nM	100 nM
CC(CCCc1ccccc1)n1cnc2c(=O)[nH]c(Cc3ccc(-c4cccc(N)c4)cc3)nc21 (stereo not drawn) [Example 82]	500 nM	20 nM	100 nM

More lines, now with the values ahead:

IC50 [1]	IC50 [2]	IC50 [3]	SMILES
1000 nM	4 nM	1000 nM	COc1ccc(Cc2nc3c(ncn3C(CCCc3ccccc3)C(C)=O)c(=O)[nH]2)cc1OC (stereo not drawn) [Example 100]
500 nM	20 nM	300 nM	CC(CCCc1ccccc1)n1cnc2c(=O)[nH]c(Cc3ccc(-c4ccsc4)cc3)nc21 (stereo not drawn) [Example 83]
1000 nM	20 nM	100 nM	CC(CCCc1ccccc1)n1cnc2c(=O)[nH]c(Cc3ccc(-c4cccnc4)cc3)nc21 (stereo not drawn) [Example 84]
1000 nM	3 nM	500 nM	CC(O)C(CCCc1ccccc1)n1cnc2c(=O)[nH]c(Cc3ccc(NC(=O)C4CCN(C(=O)OCc5ccccc5)CC4)cc3)nc21 (stereo not drawn) [Example 121]
1000 nM	4 nM	500 nM	CCOC(=O)N1CCC(C(=O)Nc2ccc(Cc3nc4c(ncn4C(CCCc4ccccc4)C(C)O)c(=O)[nH]3)cc2)CC1 (stereo not drawn) [Example 122]
500 nM	1 nM	500 nM	COc1ccc(Cc2nc3c(ncn3C(CCCc3ccccc3)C(C)O)c(=O)[nH]2)cc1S(=O)(=O)N1CCC(C(=O)O)CC1 (stereo not drawn) [Example 138]
